The test deals with milk-induced eosinophilia and leukocytosis. In words: Milk-induced eosinophilia and leukocytosis in mice. It is filed as in vivo, Swiss albino mice. The note with it: for Eosinophil (mean ± SD), post-treatment / Total leucocyte count (mean ± SD), post-treatment: 24 h after dosing, p.o. 1 h before boiled and cooled milk 4 ml/kg s.c., polyherbal extract 307 mg/kg, levocetirizine 0.9 mg/kg, fexofenadine 21 mg/kg; for Eosinophil (mean ± SD), pre-treatment / Total leucocyte count (mean ± SD), pre-treatment: before treatment, 6 mice/group. The procedure:
The composition of the present invention was assessed using milk-induced cosinophilia and leukocytosis animal model to evaluate the anti-inflammatory activity.
Injection of milk into mice induces allergy response which in turn causes leucocytosis. Leukocytosis is the condition of having a high number of leukocytes in the blood. Leukocytes are white blood cells. Leukocytosis may be a temporary response to an allergy, infection or an injury as the body is healing naturally, or it can be a sign of disease.
Study was conducted to check the effect of extracts on milk-induced eosinophilia and leukocytosis in mice, by determining the count of eosinophils and leukocytes. For this model, 54 Swiss albino mice weighing in the range of 20-25 gm were used and divided in nine groups (6 mice/group). The eosinophils and leukocyte count was checked before and after treatment i.e. 24 hours after dosing with polyherbal formulation and standard drugs.
All the animals were maintained in the animal house under standard conditions: temperature (24±1° C.), relative humidity (45-55%), light (12 h) and dark (12 h) cycle, and were allowed free access to food and water ad libitum. After one-week acclimatization in the animal house, the animals were used for the experiments.
Polyherbal extract containing Nigella sativa 88 mg/kg, Tinospora cordifolia 158 mg/kg, Petasites hybridus 26 mg/kg and Perilla frutescens 35 mg/kg was suspended in carboxy methyl cellulose. The suspension thus contained 307 mg/kg of the extract.
Similarly, standard drugs levocetirizine and fexofenadine were prepared as per requirement
The treatment of polyherbal extract and standard drug formulation were given orally 1 hour prior to injection of boiled and cooled milk. After 24 hours, blood samples were collected from retro orbital plexus, under ketamine xylazine anesthesia. Total eosinophil and differential leukocyte count per cu·mm was anlysed using hematology analyzer before and after treatment.

The structures appear in SMILES notation.

`CC(C)(C(=O)O)c1ccc(C(O)CCCN2CCC(C(O)(c3ccccc3)c3ccccc3)CC2)cc1` (centres unmarked) [Fexofenadine]: the “Eosinophil (mean ± SD), post-treatment” value is 0.183 ± 0.075 10^3/μL; the “Total leucocyte count (mean ± SD), post-treatment” value is recorded as 6.917 ± 0.436 10^3/μL; the “Eosinophil (mean ± SD), pre-treatment” value is 0.17 ± 0.08 10^3/μL; the “Total leucocyte count (mean ± SD), pre-treatment” value is listed as 7.87 ± 0.72 10^3/μL.

`O=C(O)COCCN1CCN([C@H](c2ccccc2)c2ccc(Cl)cc2)CC1` [Levocetirizine]: the “Eosinophil (mean ± SD), post-treatment” value is given as 0.167 ± 0.082 10^3/μL; the “Total leucocyte count (mean ± SD), post-treatment” value is given as 6.950 ± 1.089 10^3/μL; the “Eosinophil (mean ± SD), pre-treatment” value is listed as 0.18 ± 0.08 10^3/μL; the “Total leucocyte count (mean ± SD), pre-treatment” value is given as 6.95 ± 1.57 10^3/μL.

These data come from patent US20260021154A1, “HERBAL ANTI-INFAMMATORY COMPOSITION” (CIRA HERBALS LLP, priority 2022, published 2026).
